Laboratory results reported in patent publication US6417327B1, “Peptide capable of regulating physiological function of FGF-5 and pharmaceutical composition containing the peptide” (Agency of Industrial Science and Technology, priority 1999, dated 2002).
No end group written: not given here.

Experiments:
FGF-5 = assay: Determination of DNA-synthesis-inhibiting activity (uptake of tritium, 3HTdR) in the presence of recombinant FGF-5; type: cell-based, mouse; details: Balb/c3T3 cells, test solution FGF-5(+) with heparin 5 μg/ml, recombinant FGF-5 10^-10 M, peptide 10^-7 to 10^-3 M
Experimental: (§1) Balb/c3T3 cells (1.5×10^4 cells/500 μl) were plated on a 24-well culture plate and cultured in a DMEM medium for 24 hours in the presence o f 10% FCS. After washing the cells with the medium, a DMEM medium containing 0.3% FCS was added thereto to further culture the cells for 24 hours to synchronize the cells. To the mixture, test solutions [FGF-5(+)] containing heparin (5 μg/ml), one of FGF-5 peptides 1-5 synthesized in Example 1 (10^−7 to 10^−3 M) and the recombinant FGF-5 prepared in Reference Example 1 (10^−10 M) were added. After 16 hours of cultivation, 3 HTdR was added, and the cells were further cultured for 4 hours in a CO2 incubator. The supernatants were aspirated. The cells were washed with PBS, added with 10% TCA (125 μl), and incubated at room temperature. After confirming the immobilization of the cells, the supernatants were discarded. Five-hundred ul of 0.5N NaOH was added and the mixture was further incubated at room temperature for an hour, added with 3 ml scintillator and determined for the uptake of tritium into the cells with a liquid scintillation counter.
As controls for the determinations of inhibiting and promoting activities, a test solution containing heparin (5 μg/ml) and the recombinant FGF-5 (10^−10 M) prepared in Reference Example 1 was used.

Balb/c3T3 cells = assay: Determination of DNA-synthesis-promoting activity (uptake of tritium, 3HTdR) without FGF-5; type: cell-based; details: test solution FGF-5(-) with heparin, peptide 10^-7 to 10^-3 M, without the addition of FGF-5
Experimental: as §1
The uptake of tritium into cells was determined as described in (1) above with a liquid scintillation counter except that test solutions [FGF-5(−)] containing heparin and one of FGF-5 peptides 1-5 synthesized in Example 1 were used. […]

platelets = assay: Determination of thrombocytosis activity (number of platelets); type: in vivo; details: ICR mice, intraperitoneal; for increase of platelet: 1 μg/kg
Experimental: ICR mice (male, 6 weeks old, weights 29-32 g) were grouped into 4 groups of six mice. A test solution containing the above-mentioned FGF-5 peptide 6 was intraperitoneally administered for 10 successive days.
The peptide (3.3 mg/ml) in an injection solution (0.9% saline containing 100 μg/ml bovine serum albumin (Fraction V)) was administered to the mice at 0.3 ml/mouse (33 mg/kg) At the same time, human recombinant thrombopoietin solution (0.1 μg/ml) and human recombinant interleukin 6 solution (0.1 μg/ml) were prepared, and intraperitoneally administered for 0.3 ml per mouse (1 μg/kg). Five μl of blood was collected from the caudal vein of each mouse, and immediately mixed with 20 μl of 3.8% sodium citrate in a test tube. Subsequently, the blood mixtures were serially diluted twice with Cellpack and determined for the number of platelets, as well as to determine the numbers of erythrocytes and hemacrit values with Sysmex F-820 (TOA Electronics Ltd.)

mouse bone marrow cells = assay: Differentiating and proliferating activities to give megakaryocytes (increase of acetylcholineesterase activity); type: cell-based; details: cultured 4 days, acetylcholineesterase activity by fluorescence
Experimental: The differentiating and proliferating activities to give megakaryocytes were determined for this peptide, as the increase of acetylcholineesterase activity, by using mouse bone marrow cells as follows.
Bone marrow cells were taken from femur of ICR mouse (male, 6 weeks old), suspended in RPMI 1640 medium containing 1% fetal calf serum (FCS), and centrifuged. The supernatant was removed and the resultant was suspended in RPMI 1640 medium containing 0.5 mM DFP (diisopropylfluorophosphate) and 0.1% BSA (bovine serum albumin), and left to stand at room temperature for 20 min. Thereafter, the cells were washed with the same culture twice and suspended in RPMI 1640 medium containing 1% Neutridoma-SP and 0.1% BSA such that the number of cells was 2×10^6 cells/ml. The thus-prepared bone marrow cell suspension was dispensed in 100 μl into a 96-well culture plate, and cultured with a test solution containing 50 μl of FGF-5 peptide 6 at 37° C. for 4 days in the presence of 5% CO2.
Thereafter, the supernatant was removed, and the resultant was washed with PBS(−) twice and added with 180 μl 50 mM HEPES buffer (pH 7.6) containing 0.2% (w/v) Triton X-100 and 0.12 M NaCl and with 20 ul solution containing 5.6 mM acetylthiocholine iodide. […]

Substance: Gln Val His Arg (QVHR; SEQ ID NO3 represents a partial sequence (corresponding to amino acids 120-123) of the amino acid sequence of human FGF-5S.) [FGF-5 peptide 5]
- DNA-synthesis-inhibiting activity (FGF-5): inhibited DNA synthesis

Substance: HEANMLS [FGF-5 peptide 3]
- DNA-synthesis-promoting activity (Balb/c3T3 cells): promoted DNA synthesis

Substance: HEANMLSQVHR [FGF-5 peptide 4]
- DNA-synthesis-inhibiting activity (FGF-5): inhibited DNA synthesis

Substance: PDGKVNGSHEANM [FGF-5 peptide 6]
- increase of the numbers of platelets (platelets; 33 mg/kg, 10 successive days, two to 4 days after the administration): 1.6 folds
- differentiating and proliferating activities to give megakaryocytes (mouse bone marrow cells): exerts differentiating and proliferating activities to give megakaryocytes

Substance: Pro Asp Gly Lys Val Asn Gly Ser His Glu Ala Asn Met Leu Ser GIn Val His Arg (PDGKVNGSHEANMLSQVHR; SEQ ID NO10 represents a partial sequence of the amino acid sequence of human FGF-5.) [FGF-5 peptide 1]
- DNA-synthesis-promoting activity (Balb/c3T3 cells): promoted DNA synthesis

Substance: human recombinant interleukin 6: human recombinant interleukin 6 solution (0.1 μg/ml), comparator in the platelet test
- increase of platelet (platelets): about 1.6 fold

Substance: human recombinant thrombopoietin: human recombinant thrombopoietin solution (0.1 μg/ml), comparator in the platelet test
- increase of platelet (platelets): about 1.6 fold
